Patent EP0314400A1, “Therapeutically active condensed thiadiazinones” (SMITH KLINE & FRENCH LABORATORIES LIMITED, priority 1987, dated 1989)

Experiments:
Anaesthetised Cats = assay: Cardiac stimulant activity in vivo (anaesthetised cats); settings: anaesthetised cats pretreated with pempidine and propranolol, administered intravenously; for ED50: Felis catus, iv, read-out: ED₅₀ (dose to increase left ventricular dp/dt max by 50%)
Text: Cardiac Stimulant Activity - In vivo (Anaesthetised Cats)
In anaesthetised cats pretreated with a ganglion blocker (pempidine) and propranolol, the compounds of the Examples cause sustained increases in left ventricular dp/dt max (this is an index of left ventricular contractility) when administered intravenously. The dose to increase left ventricular dp/dt max by 50% is given as the ED₅₀.

[1] = target: PDE (type III) enzyme (obtained from cat heart homogenate); assay: Inhibition of phosphodiesterase (PDE) (type III); format: biochemical; settings: 1 µM cAMP, read-out: IC₅₀
Procedure: Inhibition of Phosphodiesterase (PDE) (Type III)
Following the procedure described in EPA-247,724, IC₅₀ values (the concentration of inhibitor required for 50% inhibition of enzyme activity) were obtained by incubation of a PDE (type III) enzyme (obtained from cat heart homogenate) at 1 µM cAMP and a range of inhibitor concentrations from 0.1 x IC₅₀ to 100 x IC₅₀.

| IC50 [1] [nM] | Molecule | ED50 (Anaesthetised Cats) [µmol/kg] | ED₅₀ (dose to increase left ventricular dp/dt max by 50%) (Anaesthetised Cats) [µmol/kg] |
| --- | --- | --- | --- |
| 410 | Cc1cn(-c2ccc3c(c2)CC2SC(=O)NN=C32)cn1 (centres unmarked) [Example 2, 7-(4-Methyl-1H-imidazol-1-yl)-9,9a-dihydroindeno[1,2-e][1,3,4] thiadiazine-2-(3H)-one] | 0.46 | – |
| – | Amirone [reference compound] | – | 5.6 |
| 660 | Cc1nccn1-c1ccc2c(c1)CC1SC(=O)NN=C21 (centres unmarked) [Example 1, 7-(2-Methyl-1H-imidazol-1-yl)-9,9a-dihydroindeno[1,2-e][1,3,4]thiadiazine-2-(3H)-one] | 0.72 | – |
